Measurements taken from article PMC12447755, “β-Lactamase cleavable antimicrobial peptide–drug conjugates” (Chemical Science, 2025).
Converted amounts (≈) assume the structure as drawn. Like-named read-outs stand apart in the source and are kept apart here.

How the values were obtained:
[1] = test system: Escherichia coli DH5a; conditions: 16 h
[2] = test system: Enterococcus faecalis ATCC29212; conditions: ATCC29212, 16 h
[3] = test system: P. aeruginosa strain PA14
[4] = test system: Klebsiella pneumoniae CK1; conditions: CK1, 16 h
[5] = test system: P. aeruginosa strain PAO1
[6] = test system: Burkholderia thailandensis E264; conditions: Table 4; broth microdilution in MH medium, 37 °C, 16 h
[7] = test system: Methicillin-resistant Staphylococcus aureus MRSA15; conditions: Table 4; broth microdilution in MH medium, 37 °C, 16 h
[8] = human serum 100 µL in 400 µL MES buffer (pH 6, 50 mM), 37 °C, protein precipitated with 1:1 DMSO:ethanol, HPLC at 220 nm, caffeine standard; Fig. 5b, values not given
[9] = test system: Serratia marcescens ATCC39006; conditions: ATCC39006, 16 h
[10] = test system: P. aeruginosa strain PA14; test: microbe, parasite or virus in culture; conditions: Pseudomonas aeruginosa
[11] = test system: Escherichia coli DH5a; test: microbe, parasite or virus in culture; conditions: 16 h
[12] = test system: Serratia marcescens ATCC39006; test: microbe, parasite or virus in culture; conditions: ATCC39006, 16 h
[13] = test system: Enterococcus faecalis ATCC29212; test: microbe, parasite or virus in culture; conditions: ATCC29212, 16 h
[14] = test system: P. aeruginosa strain PAO1; test: microbe, parasite or virus in culture; conditions: Pseudomonas aeruginosa, PAO1, 16 h, read-out: MIC for PAO1

Row | SMILES | MIC [1] | MIC [2] | MIC for PA14 ([3]; PA14, 18 h) | MIC [4] | MIC for PAO1 ([5]; PAO1, 18 h) | MIC [6] | MIC [7] | serum stability [8] | MIC [9] | MIC ([10]; PA14, 16 h, read-out: MIC for PA14) | MIC ([10]; PA14, read-out: MIC for PA14) | MIC [11] | PA14 MIC ([3]; Table S5) | MIC for PAO1 ([5]; Table 3, data combined from multiple experiments, standard medium) | PAO1 MIC ([5]; Table S5, altered linking region between peptide and cephalosporin) | MIC [12] | MIC [13] | MIC [14]
1 | CC(=O)OCC1=C(C(=O)O)N2C(=O)[C@@H](NC(=O)CCCNc3nc4cc(n3)CCSC[C@H](NC(=O)[C@@H](N)Cc3ccccc3)C(=O)N[C@@H](CCCCN)C(=O)N[C@@H](Cc3c[nH]c5ccccc35)C(=O)N[C@@H](C)C(=O)N[C@@H](Cc3ccccc3)C(=O)N[C@@H](CCCCN)C(=O)N[C@@H](Cc3c[nH]c5ccccc35)C(=O)N[C@H](C(=O)N[C@@H](CCCCN)C(=O)N[C@@H](CCCCN)C(N)=O)CSCC4)[C@H]2SC1 [P2-8] | 32 µg/mL (≈ 16.3 µM) | 2 µg/mL (≈ 1.02 µM) | > 33 µM | ≥ 64 µg/mL | > 33 µM | ≥ 64 µg/mL | 64 µg/mL (≈ 32.6 µM) | improved stability over unstapled P2a | ≥ 64 µg/mL |  |  |  |  |  |  |  |  | 
2 | O=C(O)c1cn(C2CC2)c2cc(N3CCNCC3)c(F)cc2c1=O [Ciprofloxacin, ciprofloxacin] |  |  |  |  |  |  |  |  |  | 0.0625 µg/mL | 0.19 µM | 0.0078 µg/mL (≈ 0.0235 µM) | 0.0625 µg/mL | 0.38 µM | 0.125 µg/mL | 0.0625 µg/mL (≈ 0.189 µM) | 0.5 µg/mL (≈ 1.51 µM) | 0.125 µg/mL (≈ 0.377 µM)
